The target of the experiment is T1, GPR139 (Homo sapiens, UniProt Q6DWJ6).
T1 sequence (Q6DWJ6 1-353): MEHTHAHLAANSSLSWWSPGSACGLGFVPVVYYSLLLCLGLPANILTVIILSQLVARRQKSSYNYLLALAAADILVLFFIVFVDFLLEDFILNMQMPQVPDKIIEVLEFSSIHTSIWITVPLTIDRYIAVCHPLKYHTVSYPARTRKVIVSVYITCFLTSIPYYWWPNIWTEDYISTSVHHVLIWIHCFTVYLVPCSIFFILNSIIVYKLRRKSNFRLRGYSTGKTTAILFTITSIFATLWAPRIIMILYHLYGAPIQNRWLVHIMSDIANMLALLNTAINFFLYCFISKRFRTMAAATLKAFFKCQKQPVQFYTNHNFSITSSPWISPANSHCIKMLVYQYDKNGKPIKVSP
Briefly: Inositol monophosphate (IP1) accumulation assay, GPR139-CHOk1. Type of experiment: cell-based. Conditions: for Emax: normalized to Lundbeck Cmp 1a, read-out: Emax (%) IP1. The method, then:
Primary screening and pharmacological characterization of compounds were performed using a CHO-K1 cell line that stably expresses human GPR139 (GPR139-CHOk1). The GPR139-CHOk1 cell line was kindly provided by H. Lundbeck A/S, Denmark[24]. GPR139-CHOk1 cells were grown in Ham’s F-12 Kaighn’s Modification Medium (ThermoFisher #21127030) supplemented with 10% dialyzed fetal bovine serum (US origin, ThermoFisher #26400044), 100 units/mL Penicillin-Streptomycin (ThermoFisher #15140122), and 1 mg/mL Geneticin (ThermoFisher #11811031). […] M1R-CHOk1 cells were purchased from The Missouri S&T cDNA Resource Center (#CEM100TN00). M1R-CHOk1 cells were grown in Ham’s F12 Medium (ThermoFisher #21765029) supplemented with 10% fetal bovine serum (Brazilian origin, ThermoFisher #10270106), 100 units/mL Penicillin-Streptomycin, and 0.25 mg/mL Geneticin. HEK293A cells transiently transfected with GPR139 were used for additional pharmacological assessment of signaling pathways activated by GPR139. HEK239A cells were generously provided by Dr. Asuka Inoue, Tohoku University, Japan. HEK293A cells were grown in Dulbecco’s Modified Eagle Medium (ThermoFisher #31966047) supplemented with 10% dialyzed fetal bovine serum and 100 units/mL Penicillin-Streptomycin. Cell lines were maintained at 37 °C in humidified incubator equilibrated with 5% CO2.
HTRF IP-One Gq kit (Cisbio #62IPAPEC) was used to detect the accumulation of inositol monophosphate (IP1) as described in the work by Shehata et al.[26]. GPR139-CHOk1 cells were dissociated and resuspended in HEPES buffer. 50,000 cells in 5 µL and 5 µL test compounds diluted from DMSO stocks (final DMSO concentration of maximally 0.3%) in HEPES buffer supplemented with 40 mM LiCl were mixed in each well of white 384-well OptiPlate (PerkinElmer #6007290). The cells were incubated for 1 h at 37 °C. Then, 10 µL detection reagent composed of 2.5% Eu3 + -anti-IP1 antibody and 2.5% IP1-d2 diluted in lysis buffer was added, and the cells were incubated for 1 h at room temperature before measurements. Measurements were performed on EnVision Multimode Plate Reader (PerkinElmer) using excitation light of 340 nm and emission light of 615 nm and 665 nm. The time resolved-fluorescence resonance energy transfer (TR-FRET) 665 nm/615 nm ratio, which is inversely proportional to the IP1 accumulation, was used to determine the IP1 response.
Pharmacological data and statistical analyses were performed in GraphPad Prism v9–10 (Graphpad Software Inc., San Diego, CA), which are also specifically described in the figure and table legends. The functional assay responses were normalized to buffer (0%) and Lundbeck Cmp 1a or JNJ-63533054 (100%), for Ca^2+ and IP1 experiments in the GPR139-CHOk1 stable cell line or Ca^2+, G protein activation, and arrestin-3 recruitment experiments in the HEK293A cells transiently transfected with GPR139, respectively. Data are from at least three independent experiments, unless stated otherwise. Concentration-response curves were fitted applying non-linear regression using the log (agonist) versus response model with variable slope. ANOVA was applied for comparing results and determining statistical significance. Comparison of responses to the reference was performed using one-way ANOVA with Dunnett’s multiple comparisons test at significance threshold of p < 0.05. Comparison of responses across assays and ligands was performed using two-way ANOVA with Tukey’s multiple comparisons test at a significance threshold of p < 0.05.

Where [1] appears, read: Supplementary Table 2, mean ± SEM, read-out: pEC50 IP1 (converted).
Setting [2] is: log [Compound] M -4.5, replicate experiments.
Where [3] appears, read: log [Compound] M -5.0, replicate experiments.
Where [4] appears, read: log [Compound] M -5.5, replicate experiments.
[5] abbreviates: log [Compound] M -6.0, replicate experiments.
[6] abbreviates: log [Compound] M -6.5, replicate experiments.
The mark [7] stands for this setting: log [Compound] M -7.0, replicate experiments.
Where [8] appears, read: log [Compound] M -7.5, replicate experiments.
The mark [9] stands for this setting: log [Compound] M -8.0, replicate experiments.
The mark [10] stands for this setting: read-out: pEC50 IP1 (converted).

Where “and” joins values, the source holds several entries; their conditions need not be identical. Identical values can stand only once. Like-named read-outs stand apart in the source and are kept apart here.

Turning to `COC(=O)c1cc(NC(=O)NC(C)c2cccc(F)c2F)ccc1C` (centres unmarked) [Compound 2, COC(=O)C=1C=C(NC(=O)NC(C)C=2C=CC=C(F)C2F)C=CC1C], the EC50 under setting [1] was 1580 nM. Further, the Emax – broadly, the greatest response seen or fitted, relative to the assay's reference – (Supplementary Table 2) came out at 85 ± 8%. In addition, the “IP1 response (% of Cmp 1a)” value reads like this: under setting [2], 75 % of Cmp 1a and 55 % of Cmp 1a and 76 % of Cmp 1a and 90 % of Cmp 1a; under setting [3], 64 % of Cmp 1a and 44 % of Cmp 1a and 66 % of Cmp 1a and 76 % of Cmp 1a; under setting [4], 50 % of Cmp 1a and 41 % of Cmp 1a and 46 % of Cmp 1a and 65 % of Cmp 1a; under setting [5], 34 % of Cmp 1a and 26 % of Cmp 1a and 28 % of Cmp 1a and 41 % of Cmp 1a; under setting [6], 18 % of Cmp 1a and 16 % of Cmp 1a and 10 % of Cmp 1a and 22 % of Cmp 1a; under setting [7], 8 % of Cmp 1a (2×) and 5 % of Cmp 1a and 3.81 % of Cmp 1a. The “IP1 response (% of Cmp 1a)” value under setting [8] is 6.59 % of Cmp 1a and -1 % of Cmp 1a and 0.549 % of Cmp 1a and 2.33 % of Cmp 1a; the “IP1 response (% of Cmp 1a)” value under setting [9] is 1.89 % of Cmp 1a and -0.926 % of Cmp 1a and 0.158 % of Cmp 1a and 0.886 % of Cmp 1a.
For the compound `Cc1cscc1-c1nc(CC(=O)NC(C)c2ccccc2)no1` (centres unmarked) [Compound 1.1, CC(C1=CC=CC=C1)NC(CC2=NOC(C3=CSC=C3C)=N2)=O], the EC50 (GPR139-CHOk1, read-out: EC50, IP1 accumulation) came to 50 nM. For the same compound, where the note is “Supplementary Table 2”, the Emax was found to be 91 ± 10%. For the same compound, the “IP1 response (% of Cmp 1a)” value is 92 % of Cmp 1a and 58 % of Cmp 1a and 83 % of Cmp 1a and 87 % of Cmp 1a under setting [2]; 112 % of Cmp 1a and 74 % of Cmp 1a and 80 % of Cmp 1a and 115 % of Cmp 1a under setting [3]; 111 % of Cmp 1a and 87 % of Cmp 1a and 96 % of Cmp 1a and 100 % of Cmp 1a under setting [4]; 125 % of Cmp 1a and 85 % of Cmp 1a and 89 % of Cmp 1a under setting [5]; 112 % of Cmp 1a and 76 % of Cmp 1a (2×) and 95 % of Cmp 1a under setting [6]; 71 % of Cmp 1a and 56 % of Cmp 1a and 38 % of Cmp 1a and 67 % of Cmp 1a under setting [7]. For the same compound, the “IP1 response (% of Cmp 1a)” value is, setting by setting: under setting [8], 56 % of Cmp 1a and 27 % of Cmp 1a and 28 % of Cmp 1a and 45 % of Cmp 1a; under setting [9], 22 % of Cmp 1a and 5 % of Cmp 1a and -0.544 % of Cmp 1a and 16 % of Cmp 1a; (log [compound] M -4.5, individual replicates) 92 % of Cmp 1a and 58 % of Cmp 1a and 83 % of Cmp 1a and 87 % of Cmp 1a; (log [compound] M -5.0, individual replicates) 112 % of Cmp 1a and 74 % of Cmp 1a and 80 % of Cmp 1a and 115 % of Cmp 1a; (log [compound] M -5.5, individual replicates) 111 % of Cmp 1a and 87 % of Cmp 1a and 96 % of Cmp 1a and 100 % of Cmp 1a; (log [compound] M -6.0, individual replicates) 125 % of Cmp 1a and 85 % of Cmp 1a and 89 % of Cmp 1a. The “IP1 response (% of Cmp 1a)” value (log [compound] M -6.5, individual replicates) was 112 % of Cmp 1a and 76 % of Cmp 1a (2×) and 95 % of Cmp 1a; the “IP1 response (% of Cmp 1a)” value (log [compound] M -7.0, individual replicates) is 71 % of Cmp 1a and 56 % of Cmp 1a and 38 % of Cmp 1a and 67 % of Cmp 1a; the “IP1 response (% of Cmp 1a)” value (log [compound] M -7.5, individual replicates) is 56 % of Cmp 1a and 27 % of Cmp 1a and 28 % of Cmp 1a and 45 % of Cmp 1a; the “IP1 response (% of Cmp 1a)” value (log [compound] M -8.0, individual replicates) is 22 % of Cmp 1a and 5 % of Cmp 1a and -0.544 % of Cmp 1a and 16 % of Cmp 1a.
Turning to `Cc1cc(-c2nc(CC(=O)NC(C)c3ccccc3)no2)sc1C` (centres unmarked) [Compound 1, CC(NC(=O)CC1=NOC(=N1)C2=CC(C)=C(C)S2)C=3C=CC=CC3], the EC50 under setting [1] is 794 nM. In addition, where the note is “Supplementary Table 2”, the Emax was determined as 114 ± 5%. The “IP1 response (% of Cmp 1a)” value was 99 % of Cmp 1a and 115 % of Cmp 1a and 112 % of Cmp 1a and 118 % of Cmp 1a under setting [2]; 92 % of Cmp 1a and 116 % of Cmp 1a and 103 % of Cmp 1a and 95 % of Cmp 1a under setting [3]; 125 % of Cmp 1a and 86 % of Cmp 1a and 77 % of Cmp 1a and 96 % of Cmp 1a under setting [4]; 63 % of Cmp 1a and 74 % of Cmp 1a and 39 % of Cmp 1a and 72 % of Cmp 1a under setting [5]; 35 % of Cmp 1a and 29 % of Cmp 1a and 17 % of Cmp 1a and 40 % of Cmp 1a under setting [6]; 21 % of Cmp 1a and 14 % of Cmp 1a and 6 % of Cmp 1a and 18 % of Cmp 1a under setting [7]. Also, the “IP1 response (% of Cmp 1a)” value is, setting by setting: under setting [8], -5 % of Cmp 1a and 4 % of Cmp 1a and 0.66 % of Cmp 1a and 5.34 % of Cmp 1a; under setting [9], 1.43 % of Cmp 1a and -2.78 % of Cmp 1a and 0.322 % of Cmp 1a and 4 % of Cmp 1a.
As to `Cc1noc(CNC(=O)C2(C)CCCCN2C(=O)c2ccccc2)n1` (centres unmarked) [Compound 4, CC1=NOC(CNC(=O)C2(C)CCCCN2C(=O)C=3C=CC=CC3)=N1], the “IP1 response (% of Cmp 1a)” value is 109 % of Cmp 1a and 91 % of Cmp 1a and 86 % of Cmp 1a under setting [2]; 40 % of Cmp 1a and 36 % of Cmp 1a and 37 % of Cmp 1a under setting [3]; 13 % of Cmp 1a and 11 % of Cmp 1a and 14 % of Cmp 1a under setting [4]; 6.46 % of Cmp 1a and 2.74 % of Cmp 1a and 2.36 % of Cmp 1a under setting [5]; -0.931 % of Cmp 1a and -1.18 % of Cmp 1a and 0.0496 % of Cmp 1a under setting [6]; 3.23 % of Cmp 1a and -0.893 % of Cmp 1a and -2.41 % of Cmp 1a under setting [7]. The “IP1 response (% of Cmp 1a)” value reads like this: under setting [8], 2.42 % of Cmp 1a and -4 % of Cmp 1a and -2.57 % of Cmp 1a; under setting [9], 1.1 % of Cmp 1a and -0.196 % of Cmp 1a and -1.07 % of Cmp 1a. For the same compound, the EC50 under setting [10] was 12600 nM.
Consider `CC(NC(=O)Cn1cncc(-c2ccccc2)c1=O)c1ccccc1` (centres unmarked) [Compound 5, C[C@@H](NC(=O)CN1C=NC=C(C=2C=CC=CC2)C1=O)C=3C=CC=CC3], for which the “IP1 response (% of Cmp 1a)” value under setting [2] was 68 % of Cmp 1a and 53 % of Cmp 1a and 56 % of Cmp 1a; the “IP1 response (% of Cmp 1a)” value under setting [3] was 33 % of Cmp 1a and 17 % of Cmp 1a and 31 % of Cmp 1a; the “IP1 response (% of Cmp 1a)” value under setting [4] is 13 % of Cmp 1a (2×) and 9 % of Cmp 1a; the “IP1 response (% of Cmp 1a)” value under setting [5] was 7 % of Cmp 1a and -0.0762 % of Cmp 1a and 3.67 % of Cmp 1a; the “IP1 response (% of Cmp 1a)” value under setting [6] is -1.74 % of Cmp 1a and -4 % of Cmp 1a and 0.455 % of Cmp 1a; the “IP1 response (% of Cmp 1a)” value under setting [7] was 2.62 % of Cmp 1a and -1.59 % of Cmp 1a and -2.51 % of Cmp 1a. Further, the “IP1 response (% of Cmp 1a)” value reads like this: under setting [8], 0.67 % of Cmp 1a and -2.55 % of Cmp 1a and -3 % of Cmp 1a; under setting [9], -0.409 % of Cmp 1a and -3 % of Cmp 1a and -0.447 % of Cmp 1a. Under setting [10], the EC50 is 25100 nM.
